Data from ChEMBL document CHEMBL1201862, “PubChem BioAssay data set” (2004).
The source made the active and inactive calls.

Columns and labels:
[1] = Luminescence Cell-Based Dose Retest to Confirm Inhibitors of Cancer Stem Cells. [Related pubchem assays (depositor defined):AID2717, AID2721]; type: functional; details: Homo sapiens
[2] = NIH-3T3 fibroblast cytotoxicity, dose response, cytotoxicity control, cell-based, fluorescence, Alamar Blue, secondary assay (AID 2327); type: functional;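 also: NIH-3T3 mouse fibroblasts cultured with fluconazole at 8 µg/mL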
[3] = fluconazole-exposed Candida albicans growth modulators – fluorescence, retest, confirmation (AID 2467); type: functional, cell-based
[4] = reduction of Shn3 3'UTR-driven luciferase in osteoblasts – cell-based, Clone20 osteoblasts, firefly luciferase, cherry-picked, dose response (AID 624132); type: functional;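 also: firefly luciferase luminescence from reporter carrying the Shn3 3'UTR in osteoblasts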
[5] = non-specific 3'UTR reporter inhibition in Clone20-Shn3RL – cell-based, Renilla luciferase, cherry-picked, counter-screen for Shn3 inhibitor project, dose response (AID 624133); type: functional
[6] = molecular target: T1, Calpain-2 catalytic subunit (Sus scrofa, UniProt P43367); test: m-calpain protease blockers, concentration series – biochemical, fluorogenic peptide substrate, dose response (AID 1420); type: functional
T1 sequence (P43367 whole entry): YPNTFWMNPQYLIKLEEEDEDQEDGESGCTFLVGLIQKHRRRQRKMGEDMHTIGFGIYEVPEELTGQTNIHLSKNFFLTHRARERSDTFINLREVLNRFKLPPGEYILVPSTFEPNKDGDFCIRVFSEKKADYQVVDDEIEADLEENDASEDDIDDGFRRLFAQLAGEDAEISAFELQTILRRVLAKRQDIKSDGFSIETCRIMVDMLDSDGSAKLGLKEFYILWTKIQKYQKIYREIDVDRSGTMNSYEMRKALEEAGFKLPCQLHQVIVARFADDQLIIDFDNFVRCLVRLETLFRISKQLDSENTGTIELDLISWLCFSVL

[7] = loss of viability in HepG2 cells – cell-based, CellTiter-Glo, cherry-picked, cytotoxicity control for Shn3 inhibitor project, dose response (AID 624134); type: functional
[8] = viability of PTEN-deleted HCT116 cells – cell-based, HCT116 PTEN knockout, dose response (AID 1047); type: functional;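 also: HCT116 colon tumor cells with PTEN knocked out; cells exposed to compound for 60 hours before readout; potency for loss of cell viability measured by luminescence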
[9] = viability of HCT116 lacking mutant beta-catenin – cell-based, human colon tumor, dose response (AID 1045); type: functional;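 also: HCT116 colon tumor cells with beta catenin knocked out; cells exposed to compound for 60 hours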
[10] = molecular target: Paired box protein Pax-8 (Homo sapiens, UniProt Q06710); test: PAX8 transcriptional activity inhibition in RMG-I – RMG-I cells, luciferase, cherry-pick, dose response (AID 687027); type: functional, cell-based;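 also: luciferase reporter driven by Pax8 target thyroperoxidase promoter measured by SteadyGlo luminescence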
Sequence of Paired box protein Pax-8 (Q06710 whole entry): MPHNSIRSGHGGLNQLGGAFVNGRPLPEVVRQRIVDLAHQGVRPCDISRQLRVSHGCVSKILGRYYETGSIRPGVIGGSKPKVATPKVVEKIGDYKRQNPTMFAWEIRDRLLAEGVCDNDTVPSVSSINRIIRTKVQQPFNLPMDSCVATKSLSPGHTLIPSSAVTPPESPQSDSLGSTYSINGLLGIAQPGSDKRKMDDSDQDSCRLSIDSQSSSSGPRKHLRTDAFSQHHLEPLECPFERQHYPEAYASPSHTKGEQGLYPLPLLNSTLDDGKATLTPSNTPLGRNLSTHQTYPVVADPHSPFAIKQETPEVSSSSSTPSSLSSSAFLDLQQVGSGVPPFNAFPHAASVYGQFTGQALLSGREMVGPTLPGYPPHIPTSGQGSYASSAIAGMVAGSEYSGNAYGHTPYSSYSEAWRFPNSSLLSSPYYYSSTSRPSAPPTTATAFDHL

[11] = molecular target: T2, Rac GTPase-activating protein 1 (Homo sapiens, UniProt Q9H0H5); test: blockers of MgcRacGAP-driven Rac1 GTP hydrolysis – biochemical, ADP Hunter fluorescence, primary and confirmatory, confirmation (AID 624330); type: functional
T2 sequence (Q9H0H5 whole entry): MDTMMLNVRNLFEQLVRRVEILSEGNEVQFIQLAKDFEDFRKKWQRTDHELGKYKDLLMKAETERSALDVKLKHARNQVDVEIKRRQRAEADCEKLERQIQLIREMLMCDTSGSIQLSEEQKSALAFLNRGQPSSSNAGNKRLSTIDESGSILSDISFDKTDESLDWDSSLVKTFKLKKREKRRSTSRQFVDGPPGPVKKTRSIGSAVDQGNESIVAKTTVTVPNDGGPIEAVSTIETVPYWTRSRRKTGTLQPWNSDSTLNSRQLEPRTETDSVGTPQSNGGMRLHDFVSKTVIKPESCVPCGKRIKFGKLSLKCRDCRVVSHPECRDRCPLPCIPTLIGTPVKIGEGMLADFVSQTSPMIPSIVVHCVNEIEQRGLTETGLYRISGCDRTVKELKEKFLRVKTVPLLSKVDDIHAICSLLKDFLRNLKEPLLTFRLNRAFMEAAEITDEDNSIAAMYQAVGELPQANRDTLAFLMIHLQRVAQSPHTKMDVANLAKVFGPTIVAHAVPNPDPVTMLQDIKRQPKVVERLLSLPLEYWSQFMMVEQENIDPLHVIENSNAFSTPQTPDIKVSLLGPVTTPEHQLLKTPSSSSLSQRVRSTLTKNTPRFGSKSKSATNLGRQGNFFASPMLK

[12] = tested on: Streptococcus sp. 'group A'; test: Streptococcus pyogenes SK(-)GAS viability under kanamycin – luminescence, BacTiterGlo, confirmation, counter-screen for streptokinase expression inhibitor project, dose response (AID 1900); type: functional, organism-based
[13] = tested on: Streptococcus; test: GAS UMAA2166 growth inhibition – luminescence, BacTiterGlo, counter-screen for streptokinase expression inhibitor project, dose response (AID 1915); type: functional, organism-based;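 also: potency for reduction of bacterial viability or growth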
[14] = tested on: INS1; test: INS-1E survival protection against cytokine death – cell-based, luminescence, retest, dose response (AID 449756); type: functional; details: Rattus norvegicus;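 also: cell death triggered by IL-1 beta plus TNF-alpha plus IFN-gamma mixture; protective hits raise ATP signal compared with cytokine alone wells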
[15] = Trypanosoma cruzi growth suppression in host cells – NIH3T3 host cells, beta-gal luminescence, confirmation (AID 2044); type: functional, cell-based;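 also: intracellular parasites grown in NIH/3T3 mouse fibroblasts as host cells; luminescent beta-galactosidase reporter signal from transgenic T. cruzi replicating inside host cells; inhibitors lower the luminescence signal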
[16] = NIH3T3 cell viability loss – ATP luminescence, mouse fibroblasts, counter-screen, dose response (AID 2010); type: functional, cell-based;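 also: cells exposed to compound for about 90 hours before reading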
[17] = luciferase reporter signal suppression in cells – H4 neuroglioma cells, luminescence, dose response (AID 1990); type: functional, cell-based
[18] = Luminescence Cell-Based Dose Response HTS to Identify Inhibitors of 5'UTR Stem-Loop Driven Prion Protein mRNA Translation in H4 Neuroglioblastoma Cells. [Related pubchem assays: 1827 (Project Summary), 1813 (Primary HTS)]; type: functional
[19] = alpha-synuclein stem-loop luciferase translation blockers – H4 neuroglioma cells, luminescence, confirmation (AID 1988); type: functional, cell-based

CCOC(=O)C1=C(CSc2nc3ccccc3s2)NC(=O)NC1c1ccc(OC)cc1 (centres undefined)
AC50 [1]: 5.99 µM (active)

CC(C)CC(=O)NCc1ccc2[nH]c3c(c2c1)CCCC3
EC50 [2]: > 160 µM (inactive)
EC50 [3]: > 38 µM (not active)

CCCOc1ccccc1C1CC(=O)Nc2cc3c(cc21)OCCO3 (centres undefined)
AC50 [4]: 3.66 µM (active)
AC50 [5]: 10.2 µM (active)

CC(C)NC(=S)N/N=C/c1ccc2c(c1)OCCO2
IC50 [6]: > 50 µM (not active)

CCCC(=O)NC(=S)NNC(=O)c1ccc([N+](=O)[O-])cc1
EC50 [2]: > 160 µM (inactive)
EC50 [3]: 10.1 µM (active)

CCCNc1nc2c(c(=O)n(C)c(=O)n2C)n1Cc1cccc(C)c1
AC50 [4]: 1.91 µM (active)
AC50 [7]: > 70 µM (inactive)
AC50 [5]: 8.85 µM (active)

O=C(Nc1ccc(F)cc1)c1nc[nH]c1C(=O)Nc1ccc([N+](=O)[O-])cc1
EC50 [8]: 17.6 µM (active)
EC50 [9]: 11.2 µM (active)

C[C@@H]1CN([C@H](C)CO)S(=O)(=O)c2ccc(C#Cc3ccncc3)cc2O[C@H]1CN(C)C(=O)Nc1ccc2c(c1)OCO2
AC50 [10]: 3.68 µM (active)

O=C(NNc1ccccc1)C(CCO)C(=O)NNc1ccccc1
EC50 [2]: 19.6 µM (active)
EC50 [3]: > 38 µM (not active)

O=[N+]([O-])c1ccc2c(c1)C(N1CCOCC1)/C(=C/COc1ccc(Cl)cc1Cl)O2 (centres undefined)
IC50 [6]: 5.41 µM (not active)

CCCCCCSc1ccc(-c2nc3ccccn3c2NCCCC)cc1
AC50 [1]: 4.4 µM (active)

COC(=O)c1ccc2c(=O)n(Cc3ccco3)c(SCC(=O)Nc3ccccc3Cl)nc2c1
EC50 [8]: 37.5 µM (active)
EC50 [9]: 44.3 µM (active)

O=C(NCc1cccc(Cl)c1)c1ccc2c(c1)SC1=NS(=O)(=O)CCN12
IC50 [6]: 14.8 µM (not active)

CCN(/C=N/C1=NN(c2cccc(C(F)(F)F)c2)CC1)CC
IC50 [11]: 32.9 µM (active)

COc1cc(/C=C/C(=O)OCC(=O)Nc2c(C)n(C)n(-c3ccccc3)c2=O)ccc1O
IC50 [11]: 63.9 µM (active)

Cc1ccccc1OCCn1cc(C(=S)N2CCCC2)c2ccccc21
AC50 [4]: 24.3 µM (active)
AC50 [7]: > 70 µM (inactive)
AC50 [5]: 20.9 µM (active)

CCc1ccc(OCC(=O)NC(N=C(S)Nc2ccc(C)cc2C)C(Cl)(Cl)Cl)cc1 (centres undefined)
EC50 [12]: 3.3 µM (active)
EC50 [8]: 30.8 µM (active)
EC50 [9]: 41.1 µM (active)
EC50 [13]: 8.13 µM (active)
AC50 [14]: 7.48 µM (active)

COc1ccc(NC(=O)CN(c2ccccc2)S(=O)(=O)c2ccccc2)c(OC)c1
IC50 [6]: 49.3 µM (not active)

COc1cc(/C=N/NC(=O)C(C)Nc2nnc(O)nc2O)ccc1O (centres undefined)
IC50 [11]: 57.2 µM (active)

O=C(C[C@H]1CC[C@@H]2[C@H](COC[C@@H](O)CN2Cc2ccc(F)cc2)O1)NCc1ccccc1Cl
AC50 [10]: 41.2 µM (active)

O=C(CSc1ncc(C(F)(F)F)cc1Cl)N1CCN(S(=O)(=O)c2ccc(Cl)cc2)CC1
IC50 [6]: 4.37 µM (not active)

O=C(O)c1ccc(Nc2cnc3ccccc3n2)cc1
EC50 [2]: > 160 µM (inactive)
EC50 [3]: > 38 µM (not active)

Cn1c(=O)[nH]c(=O)c2[nH]c(N(Cc3ccccc3)Cc3ccccc3)nc21
IC50 [6]: > 50 µM (not active)

O=C(CNS(=O)(=O)c1ccccc1)N/N=C/c1ccc(O)cc1
IC50 [11]: 60 µM (active)

O=C(CNCc1cccs1)Nc1ccc(N2CCCCCC2)cc1
IC50 [11]: 107 µM (active)

COc1cc(/C=C(/NC(=O)c2ccccc2)C(=O)Nc2ccc(O)cc2)c([N+](=O)[O-])cc1OC
IC50 [11]: 55.7 µM (active)

COc1cc(OC)cc(C(=O)N2CCN(Cc3ccccc3Br)CC2)c1
IC50 [11]: 325 µM (active)

C[C@@H]1CCCCO[C@H](CN(C)Cc2ccc(C(F)(F)F)cc2)[C@@H](C)CN([C@@H](C)CO)C(=O)c2cc(NS(=O)(=O)c3cccs3)ccc2O1
AC50 [10]: 7.62 µM (active)

c1ccc(CC2CCN(Cc3ccccn3)CC2)cc1
IC50 [11]: 216 µM (active)

Cc1ccc(NS(=O)(=O)c2cc([N+](=O)[O-])ccc2NN=C(S)Nc2cc(C)ccc2C)c(C)c1
AC50 [1]: 1.12 µM (active)
AC50 [14]: 4.42 µM (active)

O=C1Nc2ccccc2C1=Nc1ccc2[nH]c3ccccc3c2c1
IC50 [11]: 16.6 µM (active)

COc1ccc(OC)c(NC(=O)c2cc(-c3cc(Cl)ccc3O)[nH]n2)c1
EC50 [8]: 36.7 µM (active)
EC50 [9]: 39.2 µM (active)

C[C@@H]1CN([C@H](C)CO)C(=O)c2cc(NS(=O)(=O)c3ccc(F)cc3)ccc2O[C@@H]1CN(C)Cc1ccc(C(F)(F)F)cc1
AC50 [10]: 22.2 µM (active)

Cc1ccc2[nH]c(SCC(=O)Nc3cc([N+](=O)[O-])ccc3F)nc2c1
EC50 [8]: 14 µM (active)
EC50 [9]: 20.6 µM (active)

Cc1cc(C)c(S(=O)(=O)Nc2nnc(C3CCCCC3)s2)c(C)c1
EC50 [2]: > 160 µM (inactive)
EC50 [3]: 1.93 µM (active)

O=C(c1ccc(COc2c(F)c(F)cc(F)c2F)o1)N1CCN(c2ccc(Cl)cc2)CC1
EC50 [8]: 21.5 µM (active)
EC50 [9]: 11.7 µM (active)

CSc1nc(N)nc2c1ncn2CC(=O)N1CCN(Cc2c(C)cc(C)cc2C)CC1
AC50 [14]: 1.98 µM (active)
AC50 [4]: 0.526 µM (active)
AC50 [7]: 33.6 µM (active)
AC50 [5]: 2.02 µM (active)

COc1ccc(C(=O)N/N=C(\Cc2ncc[nH]2)c2ccccc2)cc1
EC50 [2]: 7.31 µM (active)
EC50 [3]: > 38 µM (not active)
EC50 [15]: 1.46 µM (active)
EC50 [16]: 7.77 µM (active)

Clc1ccc(OCCn2ccnc2)c2ccccc12
EC50 [2]: > 150 µM (inactive)
EC50 [3]: 3.78 µM (active)
EC50 [15]: 3.91 µM (active)
EC50 [16]: > 60 µM (not active)

C=CCn1c(SCC(=O)c2[nH]c(C)c(C(=O)OC)c2C)nc2scc(-c3ccc(OC)c(OC)c3)c2c1=O
EC50 [17]: 6.33 µM (active)
EC50 [18]: 8.16 µM (active)
EC50 [19]: 5.89 µM (active)
AC50 [4]: 2.01 µM (active)
AC50 [7]: 41.2 µM (active)
AC50 [5]: 24.8 µM (active)

c1ccc(-n2nnnc2Oc2cccc3cccnc23)cc1
EC50 [8]: 22.6 µM (active)
EC50 [9]: 20.8 µM (active)

Cc1onc(-c2ccccc2Cl)c1C(=O)N1CCC(Cc2ccccc2)CC1
AC50 [4]: 2.29 µM (active)
AC50 [7]: 46.3 µM (active)
AC50 [5]: 4.54 µM (active)

CCN(CC)S(=O)(=O)c1cccc(NC(=O)CNc2cccc(S(=O)(=O)N3CCOCC3)c2)c1
AC50 [4]: 0.865 µM (active)
AC50 [7]: 1.08 µM (active)
AC50 [5]: 2.77 µM (active)

C=CCCc1ccc(C#N)c(SCc2c(C(=O)OCC)c3cc(OC(C)=O)c(Br)cc3n2C)n1
AC50 [14]: 1.14 µM (active)
AC50 [7]: 9.37 µM (active)
AC50 [5]: 2.75 µM (active)

COc1cccc(NP(=O)(Oc2ccccc2)Oc2ccccc2)c1
EC50 [17]: > 120 µM (not active)
EC50 [18]: 59.4 µM (active)
EC50 [19]: > 120 µM (not active)
AC50 [1]: 0.935 µM (active)

CC1CCN(CCc2nc3cc(NS(=O)(=O)c4ccccc4)ccc3n2C)CC1
AC50 [10]: 12.1 µM (active)

Cc1csc(=O)n1CC(=O)OC(C)C(=O)Nc1ccc(N(C)C)cc1 (centres undefined)
IC50 [11]: 51.4 µM (active)

Cc1ccc(CCc2nnc(SCC(=O)Nc3cccc(Cl)c3)n2-c2ccccc2)o1
AC50 [10]: 25.4 µM (active)

CCc1ccc(C(=O)NNc2ccc(F)cc2)cc1
EC50 [2]: 12.2 µM (active)
EC50 [3]: > 38 µM (not active)
